Assay [1] deals with human patients suffering from diabetes mellitus type II. Conditions: baseline to week 12; empagliflozin 10 mg and 25 mg groups vs placebo; N=825; 'up to'; cited from earlier work.
Assay [2] relates to cats previously diagnosed with high systolic blood pressure. Description: Clinical field study (Cats): systolic blood pressure. It is filed as in vivo, cat. Conditions: cats (n=5-10), 4 weeks of treatment, open label. The protocol: In a clinical field study, the effect of velagliflozin on systolic blood pressure administered to cats (n=5-10) previously diagnosed with high systolic blood pressure, is evaluated over a period of 1 month. Systolic blood pressure measurements are performed in accordance with the ACVIM consensus statement (Ref. 3). Systolic blood pressure is measured before treatment start and during weekly consecutive visits (4 weeks of treatment). The study is an open label study (unmasked). The data of this field trial confirm an average reduction of systolic blood pressure of about 5-10 mmHg.

The test system of assay [3] is dogs previously diagnosed with high systolic blood pressure. In words: Clinical field study (Dogs): systolic blood pressure. It is filed as in vivo, dog. To be noted: dogs (n=5-10), 4 weeks of treatment, open label. The method, then:
In a clinical field study, the effect of velagliflozin on systolic blood pressure administered to dogs (n=5-10) previously diagnosed with high systolic blood pressure, is evaluated over a period of 1 month. Systolic blood pressure measurements are performed in accordance with the ACVIM consensus statement (Ref. 3). Systolic blood pressure is measured before treatment start and during weekly consecutive visits (4 weeks of treatment). The study is an open label study (unmasked). The data of this field trial confirm an average reduction of systolic blood pressure of about 5-10 mmHg.

Take `OC[C@H]1O[C@@H](c2ccc(Cl)c(Cc3ccc(O[C@H]4CCOC4)cc3)c2)[C@H](O)[C@@H](O)[C@@H]1O` [empagliflozin, Empagliflozin]: the “placebo-subtracted mean difference of mean 24-hour systolic BP” value in assay [1] is given as “up to −4.16 mmHg”.
Turning to `N#Cc1ccc([C@@H]2O[C@H](CO)[C@@H](O)[C@H](O)[C@H]2O)cc1Cc1ccc(C2CC2)cc1` [velagliflozin, Velagliflozin], the “average reduction of systolic blood pressure” value in assay [2] and in assay [3] was 5-10 mmHg in each case.
